Experiment: mn = molality of the nth substance listed, in mol/kg
Settings: Liquid; for viscosity: Falling or rolling sphere viscometry; for mass density: Vibrating tube method

S [hydrogen sulfide] + O=S1(=O)CCCC1
Settings	mass density [kg/m3]	viscosity [mPa·s]
303.15 K, 86.7 kPa, m1 = 0.389	1257	9.33
303.15 K, 137.1 kPa, m1 = 0.623	1255	8.58
303.15 K, 193.6 kPa, m1 = 0.915	1253	7.76
303.15 K, 230.1 kPa, m1 = 1.128	1251	6.88
303.15 K, 304.1 kPa, m1 = 1.435	1248	6.31
303.15 K, 364.8 kPa, m1 = 1.764	1246	5.55
303.15 K, 401.1 kPa, m1 = 2.032	1244	5.09
303.15 K, 503.2 kPa, m1 = 2.605	1242	4.44
303.15 K, 616.7 kPa, m1 = 3.291	1238	3.7
303.15 K, 738.4 kPa, m1 = 4.17	1237	2.95
303.15 K, 889.7 kPa, m1 = 5.327	1233	2.08
303.15 K, 1040.5 kPa, m1 = 6.929	1230	1.47
313.15 K, 160.8 kPa, m1 = 0.626	1246	6.7
313.15 K, 227 kPa, m1 = 0.884	1242	6.03
313.15 K, 273.9 kPa, m1 = 1.021	1242	5.5
313.15 K, 362.7 kPa, m1 = 1.408	1238	5.07
313.15 K, 419.7 kPa, m1 = 1.723	1236	4.54
313.15 K, 481.3 kPa, m1 = 2.009	1234	4.02
313.15 K, 586.5 kPa, m1 = 2.375	1231	3.74
313.15 K, 718.4 kPa, m1 = 3.078	1228	3.07
313.15 K, 859.9 kPa, m1 = 3.931	1225	2.44
313.15 K, 1035.5 kPa, m1 = 5.164	1223	1.8
323.15 K, 76.1 kPa, m1 = 0.222	1243	6.09
323.15 K, 118.7 kPa, m1 = 0.378	1242	5.55
323.15 K, 190.1 kPa, m1 = 0.579	1239	5.16
323.15 K, 267.2 kPa, m1 = 0.823	1236	4.49
323.15 K, 317.2 kPa, m1 = 1.009	1234	4.35
323.15 K, 430.1 kPa, m1 = 1.389	1229	3.74
323.15 K, 490.4 kPa, m1 = 1.704	1226	3.41
323.15 K, 565.2 kPa, m1 = 1.985	1223	3.09
323.15 K, 688.7 kPa, m1 = 2.348	1220	2.86
323.15 K, 843.7 kPa, m1 = 3.097	1216	2.35
323.15 K, 1009.9 kPa, m1 = 3.97	1215	1.89
333.15 K, 88.3 kPa, m1 = 0.218	1233	4.78
333.15 K, 139.2 kPa, m1 = 0.372	1231	4.65
333.15 K, 219.9 kPa, m1 = 0.571	1228	4.29
333.15 K, 314.1 kPa, m1 = 0.811	1225	3.86
333.15 K, 370.5 kPa, m1 = 0.995	1223	3.58
333.15 K, 505.9 kPa, m1 = 1.368	1219	3.17
333.15 K, 576.7 kPa, m1 = 1.681	1215	2.8
333.15 K, 664 kPa, m1 = 1.959	1212	2.55
333.15 K, 800 kPa, m1 = 2.462	1208	2.29
343.15 K, 96 kPa, m1 = 0.205	1223	3.95
343.15 K, 159.7 kPa, m1 = 0.347	1220	3.74
343.15 K, 253.3 kPa, m1 = 0.563	1218	3.5
343.15 K, 368.1 kPa, m1 = 0.797	1215	3.13
343.15 K, 428.2 kPa, m1 = 0.981	1214	2.99
343.15 K, 590.6 kPa, m1 = 1.347	1211	2.65
343.15 K, 678.9 kPa, m1 = 1.654	1204	2.34
343.15 K, 782.1 kPa, m1 = 1.927	1202	2.18
343.15 K, 914 kPa, m1 = 2.221	1200	2.01
343.15 K, 1119.8 kPa, m1 = 2.876	1196	1.65
353.15 K, 116.1 kPa, m1 = 0.202	1216	3.24
353.15 K, 179.9 kPa, m1 = 0.319	1214	3.11
353.15 K, 288.8 kPa, m1 = 0.546	1210	2.69
353.15 K, 427.9 kPa, m1 = 0.802	1209	2.53
353.15 K, 494.2 kPa, m1 = 0.965	1206	2.46
353.15 K, 683.1 kPa, m1 = 1.324	1199	2.2
353.15 K, 795.9 kPa, m1 = 1.624	1195	1.98
353.15 K, 911.1 kPa, m1 = 1.894	1193	1.81
363.15 K, 131.7 kPa, m1 = 0.195	1208	2.71
363.15 K, 201.9 kPa, m1 = 0.304	1206	2.61
363.15 K, 327.1 kPa, m1 = 0.504	1202	2.46
363.15 K, 494.7 kPa, m1 = 0.767	1199	2.21
363.15 K, 565.7 kPa, m1 = 0.912	1196	2.05
363.15 K, 784.2 kPa, m1 = 1.3	1190	1.74
363.15 K, 928.7 kPa, m1 = 1.591	1185	1.5
363.15 K, 1052.3 kPa, m1 = 1.86	1184	1.37
